Results from patent US9918963B2, “Therapeutic agent for disease based on inhibitory effect of macrophage migration inhibitory factor” (TOYAMA CHEMICAL CO., LTD., priority 2013, dated 2018).

Experiments:
[1] = molecular target: T1, MIF (Homo sapiens, UniProt P14174); assay: Confirmation of the binding of Compound A and MIF (compound beads pull-down from THP-1 cell lysate, Western blotting); conditions: elution with 0.5 mmol/L Compound A, anti-MIF Western blotting
T1 construct: (catalogue number not given); host or cells: E. coli BL21 Star (DE3)
T1 sequence (P14174 2-115 limits assumed): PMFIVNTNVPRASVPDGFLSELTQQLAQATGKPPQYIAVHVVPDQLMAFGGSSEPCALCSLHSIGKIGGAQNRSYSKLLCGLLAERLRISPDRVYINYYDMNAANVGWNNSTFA
Method: THP-1 cells were cultured for about 6 hours in PRMI 1640 medium containing 1% fetal bovine serum and 50 μmol/L 2-mercaptoethanol. Then, lipopolysaccharide (E. coli 0127:B8, Sigma Aldrich) was added to the culture plate at a final concentration of 1 μg/mL, and the cells were cultured for about 30 minutes. The cells were harvested and washed with phosphate buffered saline, and mixed with about 2-fold volume of cell lysis buffer (20 mmol/L Tris, 150 mmol/L sodium chloride, 1 mmol/L magnesium chloride, 0.1% NP-40, 1 mmol/L dithiothreitol, 0.1% Triton X-100, pH 7.4). The resultant mixture was placed on ice with occasional stirring for about 30 minutes, and was centrifuged (20000×g, 4° C., 8 minutes). The separated and gained supernatant was used as cell lysate. Protein concentration of the cell lysate was measured with BCA protein assay reagent (Thermo Fisher Scientific K.K.) in accordance with its manual.
Immobilization of 4-amino-N-[7-[(methylsulfonyl)amino]-4-oxo-6-phenoxy-4H-1-benzopyran-3-yl]butanamide hydrochloride on Dynabeads M-270 Carboxylic Acid (Life Technologies Corporation) was performed by a general method. […]

[2] = tested on: chronic constriction nerve injury model rat; assay: Chronic constriction nerve injury model rat, mechanical allodynia by von Frey test; type: in vivo
Method: This test was performed by referring to a method of Bennett et al. (Pain, 1988, vol. 33, pp. 87-107). Compound A was used as a test substance, and celecoxib, one of NSAIDs, was used as a reference substance. The compound A was administered at a dose of 30 mg/kg (Compound A group). The celecoxib was administered at a dose of 30 mg/kg (celecoxib group). To a control group, a 0.5% methyl cellulose aqueous solution used as a vehicle was administered. Under anesthetic with Somnopentyl (manufactured by Kyoritsu Seiyaku Corporation, about 52 mg/kg, intraperitoneal administration), nerve constriction operation was performed on the left sciatic nerves of Sprague-Dawley male rats (7 weeks old). Briefly, a left femoral region of each rat was dissected, the sciatic nerve was detached from tissues around, and the nerve was loosely constricted with a 4-0 silk suture (manufactured by Eticon Inc., surgical silk) for having narrow parts in four positions at intervals of about 1 mm. The muscular layer and the skin were respectively sutured, and the operation region was disinfected. The vehicle, the test substance or the reference substance was orally administered once a day continuously for 14 days from the 16th day after the operation. From the start of the administration, pain sense (mechanical allodynia) of the footpad of left hind paw was evaluated by von Frey test. […] The evaluation of the pain sense was expressed as an average of pain threshold values.

## CS(=O)(=O)Nc1cc2occ(NC=O)c(=O)c2cc1Oc1ccccc1 [Compound A, N-[7-[(methylsulfonyl)amino]-4-oxo-6-phenoxy-4H-1-benzopyran-3-yl]formamide]
[1]
  Binding of MIF to Compound A: specifically binds
[2]; 30 mg/kg orally once a day for 14 days, compared with control group
  Effect on the symptom of mechanical allodynia: inhibited the symptom of the mechanical allodynia
[2]; von Frey test, left hind paw, 30 mg/kg orally once a day for 14 days from the 16th day after operation
  Average of pain thresholds, 30th day after operation: 13.5 g
[2]; von Frey test, left hind paw, day before start of administration, 30 mg/kg groups
  Average of pain thresholds, 15th day after operation: 2.4 g
